According to PMC8954547, “Nonpeptidic Z360-Analogs Tagged with Trivalent Radiometals as Anti-CCK2R Cancer Theranostic Agents: A Preclinical Study” (Pharmaceutics, 2022):

Tests used:
[1] = Radioligand stability in mice (radio-HPLC of blood and urine); assay type: in vivo; conditions: mean ± SD
Procedure: The formation of radiometabolites which can be detected in the blood was tested in blood samples collected 5 min post-injection (pi) of each of the radioligands [^67Ga]Ga/[^111In]In/[^177Lu]Lu-GAS1/3 and [^67Ga]Ga/[^111In]In-GAS2. For this study, in-house male Swiss albino mice (body weight: 30 ± 5 g, provided by the NCSR “Demokritos” Animal House) were used in groups of three. The animals received, through the tail vein, a 100-μL bolus containing each radioligand tested (2.5–3 nmol of the total conjugate in vehicle: saline/EtOH 9/1 v/v, corresponding to: up to 11 MBq for In-111, up to 13 MBq for Ga-67 and up to 74 MBq for Lu-177). Mice were euthanized, and blood was collected directly from the heart using a prechilled penicillin syringe and transferred in a prechilled EDTA-containing Eppendorf Protein LoBind® tube on ice (40 µL, 50 mM Na2EDTA solution). After centrifugation (10 min, 2000× g/4 °C, in a Hettich, Universal 320R, centrifuge), the blood plasma was collected, mixed with chilled MeCN in a 1/1 v/v ratio and centrifuged again (10 min, 15,000× g/4 °C). Supernatants were collected and concentrated to a small volume (≈50–100 μL) under a gentle N2-flux at 40 °C. They were then diluted with physiological saline (≈400 μL) and filtered through a Millex GV filter (0.22 μm, 13 mm Ø, Millipore, Milford, CT, USA). Aliquots of the filtrate were analyzed by radio-RP-HPLC using a Waters Symmetry Shield RP18 cartridge column (5 μm, 3.9 mm × 20 mm) eluted at a flow rate of 1.0 mL/min with the following gradient: 100% A/0% B to 55% A/45% B in 45 min; A = 0.1% aqueous TFA (v/v) and B = MeCN (system 2). The elution time (tR) of each parent radioligand was determined by coinjection of blood samples with an aliquot of the labeling solution on the HPLC column. Results were calculated as the average percentage of intact radioligand ± SD derived from three independent experiments.
Following the same injection protocol, radioligands were administered in additional groups of mice, but this time animals were euthanized 30 min pi. The urine was immediately collected from the bladder using a prechilled syringe and transferred as before in a prechilled EDTA-containing Eppendorf Protein LoBind® centrifuge tube on ice (40 µL, 50 mM Na2EDTA solution) and 0.1 mL of physiological saline. Urine proteins were precipitated by adding chilled MeCN in a 1/1 v/v ratio followed by a 10 min centrifugation step (15,000× g/4 °C). The supernatant was then collected and treated following the blood sample workup procedure. Aliquots of the Millex-GV filtrate (containing >90% of total urine activity) were analyzed by radio-HPLC, adopting the aforementioned conditions. Results were calculated as the average percentage of intact radioligand ± SD derived from three independent experiments.

[2] = system: SCID mice bearing twin HEK293-CCK2i4svR and wtHEK293 tumors; assay: Biodistribution in SCID mice bearing twin HEK293-CCK2i4svR and wtHEK293 xenografts; assay type: in vivo
Procedure: Inocula containing a suspension of freshly harvested HEK293-CCK2i4svR/wtHEK293 cells (150 μL, 1.8 × 10^7/1.4 × 10^7 cells, respectively, in normal saline) were subcutaneously (sc) injected in the right and left flanks of male SCID mice (24.5 ± 2.3 g body weight, six weeks of age on arrival day, NCSR “Demokritos” Animal House Facility). Well-palpable tumors (0.42 ± 0.37/0.25 ± […], respectively) were grown at the inoculation site 3–4 weeks later, and biodistribution was conducted. On the day of biodistribution, animals were divided into groups of four and received the radioligand through the tail vein as a bolus (100 μL, containing each of: i. 78–91 kBq [^67Ga]GAS1/2/3 corresponding to 7–17 pmol GAS1/2/3; ii. 74–92 kBq [^111In]GAS1/2/3 corresponding to 20–25 pmol GAS1/2/3; iii. 730 kBq [^177Lu]Lu-GAS1/3 corresponding to 40 pmol GAS1/3, in-vehicle: saline/EtOH 9/1 v/v). Animals were euthanized at predetermined time intervals depending upon the radionuclide applied (for [^67Ga]Ga-GAS1/2/3: 1, 4 and 24 h pi; for [^111In]In-GAS1/2/3: 4 and 24 h pi–two extra groups of mice receiving gelofusine together with [^111In]In-GAS1/2 at 4 and 24 h pi were included; and for [^177Lu]Lu-GAS1/3: 4, 24, 48, 72 and 96 h pi). Mice were dissected, and blood samples, organs of interest and tumors were rapidly collected, weighted and counted in the gamma counter. Biodistribution data was calculated as the percentage of the administered dose per gram tissue (%IA/g) with the aid of suitable standards of the administered dose and the Microsoft Excel program. Results are presented as mean % IA/g values ± SD, n = 4 per time point, as determined by the PRISM^TM 6.0 GraphPad software (San Diego, CA, USA).

Intact radioligand in blood ([1]; mice blood collected 5 min pi): 81.1 ± 8.2 (3) %
Intact radioligand in urine ([1]; mice urine collected 30 min pi): 79.2 ± 10.3 (3) %
Biodistribution, Blood ([2]; 4 h pi): 0.99 ± 0.20 %IA/g
Biodistribution, CCK2i4svR(+) Tumor ([2]; 4 h pi): 8.74 ± 1.60 %IA/g
Biodistribution, CCK2i4svR(-) Tumor ([2]; 4 h pi): 1.01 ± 0.30 %IA/g
Biodistribution, Femur ([2]; 4 h pi): 0.28 ± 0.03 %IA/g
Biodistribution, Heart ([2]; 4 h pi): 0.41 ± 0.07 %IA/g
Biodistribution, Intestines ([2]; 4 h pi): 1.65 ± 0.28 %IA/g
Biodistribution, Kidneys ([2]; 4 h pi): 3.70 ± 0.62 %IA/g
Biodistribution, Liver ([2]; 4 h pi): 2.21 ± 0.44 %IA/g
Biodistribution, Lungs ([2]; 4 h pi): 0.94 ± 0.15 %IA/g
Biodistribution, Muscle ([2]; 4 h pi): 0.12 ± 0.02 %IA/g
Biodistribution, Pancreas ([2]; 4 h pi): 0.56 ± 0.11 %IA/g
Biodistribution, Spleen ([2]; 4 h pi): 0.59 ± 0.07 %IA/g
Biodistribution, Stomach ([2]; 4 h pi): 0.37 ± 0.05 %IA/g
Biodistribution, Blood ([2]; 24 h pi): 0.06 ± 0.00 %IA/g
Biodistribution, CCK2i4svR(+) Tumor ([2]; 24 h pi): 2.09 ± 0.50 %IA/g
Biodistribution, CCK2i4svR(-) Tumor ([2]; 24 h pi): 0.29 ± 0.20 %IA/g
Biodistribution, Femur ([2]; 24 h pi): 0.11 ± 0.01 %IA/g
Biodistribution, Heart ([2]; 24 h pi): 0.12 ± 0.00 %IA/g
Biodistribution, Intestines ([2]; 24 h pi): 0.32 ± 0.07 %IA/g
Biodistribution, Kidneys ([2]; 24 h pi): 1.05 ± 0.12 %IA/g
Biodistribution, Liver ([2]; 24 h pi): 0.51 ± 0.07 %IA/g
Biodistribution, Lungs ([2]; 24 h pi): 0.34 ± 0.03 %IA/g
Biodistribution, Muscle ([2]; 24 h pi): 0.04 ± 0.00 %IA/g
Biodistribution, Pancreas ([2]; 24 h pi): 0.10 ± 0.01 %IA/g
Biodistribution, Spleen ([2]; 24 h pi): 0.32 ± 0.01 %IA/g
Biodistribution, Stomach ([2]; 24 h pi): 0.14 ± 0.03 %IA/g
Biodistribution, Blood ([2]; 48 h pi): 0.04 ± 0.01 %IA/g
Biodistribution, CCK2i4svR(+) Tumor ([2]; 48 h pi): 0.97 ± 0.20 %IA/g
Biodistribution, CCK2i4svR(-) Tumor ([2]; 48 h pi): 0.17 ± 0.02 %IA/g
Biodistribution, Femur ([2]; 48 h pi): 0.09 ± 0.01 %IA/g
Biodistribution, Heart ([2]; 48 h pi): 0.07 ± 0.01 %IA/g
Biodistribution, Intestines ([2]; 48 h pi): 0.08 ± 0.01 %IA/g
Biodistribution, Kidneys ([2]; 48 h pi): 0.38 ± 0.07 %IA/g
Biodistribution, Liver ([2]; 48 h pi): 0.32 ± 0.04 %IA/g
Biodistribution, Lungs ([2]; 48 h pi): 0.29 ± 0.04 %IA/g
Biodistribution, Muscle ([2]; 48 h pi): 0.03 ± 0.00 %IA/g
Biodistribution, Pancreas ([2]; 48 h pi): 0.05 ± 0.01 %IA/g
Biodistribution, Spleen ([2]; 48 h pi): 0.26 ± 0.06 %IA/g
Biodistribution, Stomach ([2]; 48 h pi): 0.08 ± 0.01 %IA/g
Biodistribution, Blood ([2]; 72 h pi): 0.04 ± 0.00 %IA/g
Biodistribution, CCK2i4svR(+) Tumor ([2]; 72 h pi): 0.35 ± 0.23 %IA/g
Biodistribution, CCK2i4svR(-) Tumor ([2]; 72 h pi): 0.18 ± 0.05 %IA/g
Biodistribution, Femur ([2]; 72 h pi): 0.06 ± 0.00 %IA/g
Biodistribution, Heart ([2]; 72 h pi): 0.05 ± 0.01 %IA/g
Biodistribution, Intestines ([2]; 72 h pi): 0.06 ± 0.02 %IA/g
Biodistribution, Kidneys ([2]; 72 h pi): 0.14 ± 0.04 %IA/g
Biodistribution, Liver ([2]; 72 h pi): 0.23 ± 0.02 %IA/g
Biodistribution, Lungs ([2]; 72 h pi): 0.21 ± 0.03 %IA/g
Biodistribution, Muscle ([2]; 72 h pi): 0.02 ± 0.00 %IA/g
Biodistribution, Pancreas ([2]; 72 h pi): 0.03 ± 0.00 %IA/g
Biodistribution, Spleen ([2]; 72 h pi): 0.51 ± 0.71 %IA/g
Biodistribution, Stomach ([2]; 72 h pi): 0.05 ± 0.01 %IA/g
Biodistribution, Blood ([2]; 96 h pi): 0.04 ± 0.00 %IA/g
Biodistribution, CCK2i4svR(+) Tumor ([2]; 96 h pi): 0.56 ± 0.25 %IA/g
Biodistribution, CCK2i4svR(-) Tumor ([2]; 96 h pi): 0.11 ± 0.04 %IA/g
Biodistribution, Femur ([2]; 96 h pi): 0.05 ± 0.01 %IA/g
Biodistribution, Heart ([2]; 96 h pi): 0.04 ± 0.00 %IA/g
Biodistribution, Intestines ([2]; 96 h pi): 0.08 ± 0.05 %IA/g
Biodistribution, Kidneys ([2]; 96 h pi): 0.10 ± 0.04 %IA/g
Biodistribution, Liver ([2]; 96 h pi): 0.19 ± 0.02 %IA/g
Biodistribution, Lungs ([2]; 96 h pi): 0.17 ± 0.02 %IA/g
Biodistribution, Muscle ([2]; 96 h pi): 0.02 ± 0.01 %IA/g
Biodistribution, Pancreas ([2]; 96 h pi): 0.03 ± 0.01 %IA/g
Biodistribution, Spleen ([2]; 96 h pi): 0.14 ± 0.02 %IA/g
Biodistribution, Stomach ([2]; 96 h pi): 0.05 ± 0.01 %IA/g
Compound: CC(C)(C)C(=O)CN1C(=O)[C@H](NC(=O)Nc2cccc(C(=O)NCCOCCOCCOCCNC(=O)[C@H](CCC(=O)O)NC(=O)CN3CCN(CC(=O)[O-])CCN(CC(=O)[O-])CCN(CC(=O)[O-])CC3)c2)CN(C2CCCCC2)c2ccccc21.[177Lu+3] (stereo in doubt) [[^177Lu]Lu-GAS1]
Background clearance / excretion route ([2]; mouse, in vivo): rapid background clearance predominantly via the kidneys
